Measurements from article PMC4547793, “Trichodysplasia spinulosa-Associated Polyomavirus Uses a Displaced Binding Site on VP1 to Engage Sialylated Glycolipids” (PLoS Pathogens, 2015).

Tests used:
Assay type in all cases: binding
[1] = molecular target: T1, TSPyV VP1 (Trichodysplasia spinulosa-associated polyomavirus, UniProt E2ESL7); assay: X-ray crystal structure, soaked ([…] Å); conditions: 10 mM glycan, 15 min soak of native crystals, reservoir pH 5.0; BC2-loop site with ccw DE-loop
T1 construct: N- and C-terminally truncated VP1 (aa 31-304), pET28b, E. coli BL21(DE3); unassembled homopentamer

[2] = molecular target: T1, TSPyV VP1; assay: X-ray co-crystal structure ([…] Å); also STD NMR; conditions: 10 mM glycan, co-crystallization, 20 °C, reservoir pH 5.0; STD NMR pH 7.4, 288 K; BC2-loop site with ccw DE-loop
[3] = molecular target: T1, TSPyV VP1; assay: X-ray co-crystal structure ([…] Å); conditions: 10 mM glycan, co-crystallization, 20 °C, reservoir pH 5.0; BC2-loop site with ccw DE-loop

CC(=O)N[C@H]1[C@H]([C@H](O)[C@H](O)CO)O[C@@](O[C@H]2[C@@H](O)[C@@H](CO)O[C@@H](O[C@H]3[C@H](O)[C@@H](O)C(O)O[C@@H]3CO)[C@@H]2O)(C(=O)O)C[C@@H]1O (stereo partly drawn) [3’SL]
X-ray crystal structure, soaked (1.55 Å) [1]: 4U62 (TSPyV VP1-3’SL)

CC(=O)N[C@H]1[C@H](O[C@@H]2[C@H](O[C@]3(C(=O)O)C[C@H](O)[C@@H](NC(C)=O)[C@H]([C@H](O)[C@H](O)CO)O3)[C@@H](O)[C@H](O[C@H]3[C@H](O)[C@@H](O)C(O)O[C@@H]3CO)O[C@@H]2CO)O[C@H](CO)[C@H](O)[C@@H]1O[C@@H]1O[C@H](CO)[C@H](O)[C@H](O)[C@H]1O (stereo partly drawn) [GM1 glycan]
X-ray co-crystal structure (1.50 Å); also STD NMR [2]: 4U60 (TSPyV VP1-GM1 glycan)

CC(=O)N[C@H]1[C@H]([C@H](O)[C@H](O)CO)O[C@@](OC[C@H]2O[C@@H](O[C@H]3[C@H](O)[C@@H](O)C(O)O[C@@H]3CO)[C@H](O)[C@@H](O)[C@H]2O)(C(=O)O)C[C@@H]1O (stereo partly drawn) [6’SL]
X-ray co-crystal structure (1.65 Å) [3]: 4U61 (TSPyV VP1-6’SL)
